Measured values: US20160137630A1, “INDUCTION OF GATA2 BY HDAC1 AND HDAC2 INHIBITORS” (ACETYLON PHARMACEUTICALS, INC., priority 2014, published 2016)
Entries after “also recorded” stand apart in the source; their conditions may differ. Read-outs that look alike come from different tables or passages of the source.

Assays:
MV4-11 cells = assay: GATA2 expression in MV4-11 AML cell line; format: cell-based; conditions: 1 uM single agent, 48 h and 72 h
Procedure: FIG. 24. […] (A-B) MV4-11 cells were plated at 2×10^5 cells/ml at indicated doses for 48 h and 72 h. RNA was prepared and analyzed for GATA2 and GAPDH as internal control.

HDAC3 = HDAC3 (Homo sapiens, UniProt O15379); assay: in vitro biochemical HDAC inhibition assay; conditions: for IC50: read-out: IC50 HDAC3
Sequence of HDAC3 (O15379 whole entry): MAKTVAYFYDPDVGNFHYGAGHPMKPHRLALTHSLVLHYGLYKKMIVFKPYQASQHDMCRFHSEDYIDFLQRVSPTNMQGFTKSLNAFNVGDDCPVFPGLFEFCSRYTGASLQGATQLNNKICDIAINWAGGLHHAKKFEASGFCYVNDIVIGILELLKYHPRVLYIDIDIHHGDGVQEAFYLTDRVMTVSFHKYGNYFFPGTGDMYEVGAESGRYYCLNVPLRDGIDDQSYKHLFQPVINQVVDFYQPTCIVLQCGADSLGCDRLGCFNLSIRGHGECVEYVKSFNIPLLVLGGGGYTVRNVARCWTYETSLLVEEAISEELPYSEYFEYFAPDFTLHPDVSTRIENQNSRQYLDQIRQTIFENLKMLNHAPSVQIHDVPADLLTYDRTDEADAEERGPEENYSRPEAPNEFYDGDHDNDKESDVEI
Sequence of HDAC3 (Q9Y618 395-489 partner limits assumed): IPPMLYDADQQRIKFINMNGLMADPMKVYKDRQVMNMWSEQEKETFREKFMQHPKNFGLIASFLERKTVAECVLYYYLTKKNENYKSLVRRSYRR

HDAC2 = HDAC2 (Homo sapiens, UniProt Q92769); assay: in vitro biochemical HDAC inhibition assay; conditions: read-out: IC50 HDAC2
Sequence of HDAC2 (Q92769 whole entry): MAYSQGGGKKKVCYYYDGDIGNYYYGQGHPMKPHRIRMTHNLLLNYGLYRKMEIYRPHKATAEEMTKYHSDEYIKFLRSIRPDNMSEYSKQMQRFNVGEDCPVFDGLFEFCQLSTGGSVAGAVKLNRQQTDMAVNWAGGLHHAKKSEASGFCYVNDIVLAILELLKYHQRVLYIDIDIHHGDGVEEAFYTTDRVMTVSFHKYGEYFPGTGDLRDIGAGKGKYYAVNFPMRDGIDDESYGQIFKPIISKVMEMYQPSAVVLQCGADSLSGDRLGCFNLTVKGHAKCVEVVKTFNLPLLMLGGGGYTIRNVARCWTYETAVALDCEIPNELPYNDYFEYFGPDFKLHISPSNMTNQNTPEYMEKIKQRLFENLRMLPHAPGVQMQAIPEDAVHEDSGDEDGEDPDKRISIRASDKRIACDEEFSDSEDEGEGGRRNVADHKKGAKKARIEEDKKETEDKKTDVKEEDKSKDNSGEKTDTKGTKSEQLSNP

HDAC6 = HDAC6 (Homo sapiens, UniProt Q9UBN7); assay: in vitro biochemical HDAC inhibition assay
Sequence of HDAC6 (Q9UBN7 whole entry): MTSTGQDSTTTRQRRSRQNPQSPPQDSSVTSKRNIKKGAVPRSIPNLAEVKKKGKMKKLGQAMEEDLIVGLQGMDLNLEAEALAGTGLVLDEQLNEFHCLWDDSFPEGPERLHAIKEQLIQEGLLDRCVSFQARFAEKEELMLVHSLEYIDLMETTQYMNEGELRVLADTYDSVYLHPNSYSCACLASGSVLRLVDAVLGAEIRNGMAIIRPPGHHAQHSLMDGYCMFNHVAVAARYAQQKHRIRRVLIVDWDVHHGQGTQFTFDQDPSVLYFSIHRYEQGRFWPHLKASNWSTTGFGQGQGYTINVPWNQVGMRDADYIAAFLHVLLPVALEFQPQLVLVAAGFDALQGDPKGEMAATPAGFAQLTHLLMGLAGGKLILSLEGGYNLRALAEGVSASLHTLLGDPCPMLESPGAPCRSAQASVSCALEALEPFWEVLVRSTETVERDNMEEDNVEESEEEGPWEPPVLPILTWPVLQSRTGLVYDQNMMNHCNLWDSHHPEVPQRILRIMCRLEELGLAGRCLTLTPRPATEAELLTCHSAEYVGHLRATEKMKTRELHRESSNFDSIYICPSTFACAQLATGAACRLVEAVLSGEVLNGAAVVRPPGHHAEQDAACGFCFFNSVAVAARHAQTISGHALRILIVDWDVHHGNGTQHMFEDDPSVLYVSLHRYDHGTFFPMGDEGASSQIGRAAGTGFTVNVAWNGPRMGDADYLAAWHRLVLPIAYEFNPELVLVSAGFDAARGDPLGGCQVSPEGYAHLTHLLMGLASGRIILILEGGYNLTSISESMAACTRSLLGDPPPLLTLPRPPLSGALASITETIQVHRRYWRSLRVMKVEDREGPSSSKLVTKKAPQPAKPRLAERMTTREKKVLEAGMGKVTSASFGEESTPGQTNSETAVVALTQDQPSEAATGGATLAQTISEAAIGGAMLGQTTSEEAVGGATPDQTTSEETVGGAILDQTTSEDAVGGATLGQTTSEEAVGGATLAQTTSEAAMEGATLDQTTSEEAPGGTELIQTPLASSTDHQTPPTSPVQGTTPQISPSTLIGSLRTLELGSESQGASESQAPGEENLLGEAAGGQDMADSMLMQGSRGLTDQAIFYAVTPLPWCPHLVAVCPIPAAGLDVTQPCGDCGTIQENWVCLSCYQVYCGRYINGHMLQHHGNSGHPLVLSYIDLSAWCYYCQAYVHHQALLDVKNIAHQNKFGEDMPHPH

HDAC1 = HDAC1 (Homo sapiens, UniProt Q13547); assay: in vitro biochemical HDAC inhibition assay; conditions: read-out: IC50 HDAC1
Sequence of HDAC1 (Q13547 whole entry): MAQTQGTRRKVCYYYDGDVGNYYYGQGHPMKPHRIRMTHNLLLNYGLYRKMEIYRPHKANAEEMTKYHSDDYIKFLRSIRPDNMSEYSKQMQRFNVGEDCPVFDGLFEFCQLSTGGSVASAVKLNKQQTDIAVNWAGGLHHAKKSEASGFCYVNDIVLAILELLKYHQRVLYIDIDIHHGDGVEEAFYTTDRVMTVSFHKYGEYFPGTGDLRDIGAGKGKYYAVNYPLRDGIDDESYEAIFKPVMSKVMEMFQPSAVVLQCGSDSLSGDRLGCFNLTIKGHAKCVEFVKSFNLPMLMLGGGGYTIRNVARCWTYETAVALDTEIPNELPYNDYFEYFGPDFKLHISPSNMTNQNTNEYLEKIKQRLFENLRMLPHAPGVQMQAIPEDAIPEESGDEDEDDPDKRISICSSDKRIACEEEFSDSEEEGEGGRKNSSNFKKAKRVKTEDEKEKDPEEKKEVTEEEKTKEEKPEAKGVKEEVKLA

Gata2 mRNA = assay: induction of Gata2 mRNA in erythroid progenitors by HDAC1,2 inhibitors; format: cell-based, human; conditions: erythroid progenitors differentiated 3 days with compound; FIG. 2A-C
Source text: Human bone marrow derived CD34+ cells were expanded for 7 days as described by Sankaran et al., Science, vol. 322(5909), pp. 1839-42 (2008). Cells were then differentiated, in the presence of the indicated compound (i.e., Compounds 001, Compound Y, Compound 2005, Compound 2004, Compound 2003), for 3 days in media supporting erythropoiesis (Hu et al., “Isolation and functional characterization of human erythroblasts at distinct stages: implications for understanding of normal and disordered erythropoiesis in vivo”, Blood, vol. 121(16), pp. 3246-53 ([…])). FIG. 2A, FIG. 2B, and FIG. 2C each represents an experimental series performed on different days and with different donor cells.

HDACs 4-9 = assay: in vitro HDAC inhibition assay, HDACs 4-9; format: biochemical; conditions: concentrations as high as 20 μM; FIG. 20
HbG mRNA = assay: % HbG mRNA induction in 2-phase culture systems CS1 and CS2; format: cell-based, human
Source text: Then, the cells were differentiated by exposure to either vehicle (control) or Compound 001. RNA samples of HbG were taken at days 0, 3, 5, and 8. […] Staining cells with a FITC-conjugated anti-HbF antibody and flow cytometry was used to measure induction of fetal hemoglobin.

[1] = system: Human CD34+ bone marrow cells; assay: erythroid maturation in CS1 by CD71/GlyA flow cytometry; format: cell-based; conditions: 1 μM, first 5 days
Source text: To investigate the effects of HDAC inhibition on later stages of erythroid maturation, differentiation in CS1 was followed by flow cytometry using fluorescent antibodies against the transferrin receptor (CD71) and glycophorin A (GlyA). […] The majority of vehicle control cells continued to differentiate, becoming CD71^posGlyA^pos by day 8. […] CD71^posGlyA^mid cells are equivalent to proerythroblasts (ProE), while CD71^posGlyA^pos cells include the more differentiated basophilic and polychromatic erythroblasts.

[2] = system: human bone marrow-derived CD34+ cells; assay: viability of expanded CD34+ cells; format: cell-based; conditions: Homo sapiens, 48 h; 2 days of treatment; FIG. 19A
Source text: This possibility was first tested by measuring the viability of expanded human bone marrow-derived CD34+ cells, composed of primitive and more differentiated hematopoietic progenitors of multiple lineages, following 2 days of treatment with compound.

IC50 (HDAC3; Table 4) [nM]	IC50 (HDAC2; Table 4) [nM]	IC50 (HDAC1; Table 4) [nM]	IC50 (HDAC3; Table 2) [nM]	IC50 (HDAC2; Table 2) [nM]	IC50 (HDAC1; Table 2) [nM]	SMILES	Gata2 mRNA (Gata2 mRNA)	also measured
						Nc1ncn([C@@H]2O[C@H](CO)[C@@H](O)[C@H]2O)c(=O)n1 [Azacitidine, azacitidine, reference compound]		GATA2 level (MV4-11 cells): induced GATA2 level
						Nc1ccc(-c2cccs2)cc1NC(=O)c1ccc2c(c1)cc(C1CC1)n2CCN1CCOCC1 [Compound 005, N-(2-amino-5-(thiophen-2-yl)phenyl)-2-cyclopropyl-1-(2-morpholinoethyl)-1H-indole-5-carboxamide]		GATA2 level (MV4-11 cells): induced GATA2 level
						O=C(NO)c1cnc(NC2(c3ccccc3)CCN(C(=O)Nc3ccc(Cl)c(Cl)c3)CC2)nc1 [Compound 1011]		IC50 (HDAC3; Table 3): 2160 nM; IC50 (HDAC2; Table 3): 177 nM; IC50 (HDAC6; read-out: IC50 HDAC6, Table 3): 14 nM; IC50 (HDAC1; Table 3): 110 nM
						CC(C)[C@@H](C(=O)N1CCC(C)(Nc2ncc(C(=O)NO)cn2)CC1)c1ccccc1 [Compound 1027]		IC50 (HDAC3; Table 3): 422 nM; IC50 (HDAC2; Table 3): 103 nM; IC50 (HDAC6): 12 nM; IC50 (HDAC1; Table 3): 130 nM
218	32.3	27.3				Nc1ccc(-c2ccccc2)cc1NC(=O)/C=C/c1ccc(N2CCNCC2)c(C2CC2)c1 [Compound 2001]	induction of Gata2 mRNA	
136	21.9	14				Nc1ccc(-c2cccs2)cc1NC(=O)/C=C/c1ccc(N2CCNCC2)c(C2CC2)c1 [Compound 2002]	induction of Gata2 mRNA	
491	79.1	85				CN1CCN(c2ccc(C(=O)Nc3cc(-c4ccccc4)ccc3N)cc2C2CC2)CC1 [Compound 2003]	induction of Gata2 mRNA	
207	8.9	11.2				Nc1ccc(-c2cccs2)cc1NC(=O)c1ccc(N2CCNCC2)cc1C1CC1 [Compound 2004]	induction of Gata2 mRNA	
673	14.1	10.2				CC1(Nc2ncc(C(=O)Nc3cc(-c4cccs4)ccc3N)cn2)CCN(C(=O)N2CCCC2)CC1 [Compound 2005]	induction of Gata2 mRNA	
284	55.5	14.9				Nc1ccc(-c2cccs2)cc1NC(=O)c1cnc(NC2CCN(C(=O)N3CCOCC3)CC2)nc1 [Compound 2007]	induction of Gata2 mRNA	
195	25.9	7.27				CC1(Nc2ncc(C(=O)Nc3cc(-c4cccs4)ccc3N)cn2)CCN(C(=O)N2CCNCC2)CC1 [Compound 2008]	induction of Gata2 mRNA	
511	16.8	12				CC1(Nc2ccc(C(=O)Nc3cc(-c4ccncc4)ccc3N)cc2)CCN(C(=O)N2CCOCC2)CC1 [Compound 2010]	induction of Gata2 mRNA	
						Nc1ccc(-c2ccncc2)cc1NC(=O)c1ccc2c(c1)cc(C1CC1)n2CCN1CCOCC1 [Compound Y]	induction of Gata2 mRNA	
						Nc1ccccc1NC(=O)c1ccc(CNC(=O)OCc2cccnc2)cc1 [Entinostat, reference compound]		inhibition of HDACs 4-9 (HDACs 4-9): negligible inhibitory activity; also recorded: no inhibition; % HbG (HbG mRNA; 1 μM, increased from 10%): 46%; induction in % HbG (HbG mRNA; differentiation phase, both culture systems, FIG. 10B, 21A-C): dose- and time-dependent induction; erythroid differentiation (CD71/GlyA) [1]: differentiated normally; IC50 [2]: 3000 nM
			477	23	11	Nc1ccc(-c2ccccc2)cc1NC(=O)c1ccc2nn(CCN3CCOCC3)cc2c1 [N-(4-amino-[1,1′-biphenyl]-3-yl)-2-(2-morpholinoethyl)-2H-indazole-5-carboxamide]		
			689	70	15	Nc1ccc(-c2ccccc2)cc1NC(=O)c1ccc2c(c1)cc(C1CC1)n2CCN1CCOCC1 [N-(4-amino-[1,1′-biphenyl]-3-yl)-2-cyclopropyl-1-(2-morpholinoethyl)-1H-indole-5-carboxamide]		
			> 2000	> 2000	> 2000	COCCn1cc(C2CC2)c2cc(C(=O)Nc3cc(-c4ccccc4)ccc3N)ccc21 [N-(4-amino-[1,1′-biphenyl]-3-yl)-3-cyclopropyl-1-(2-methoxyethyl)-1H-indole-5-carboxamide]		
			1900	681	> 2000	Nc1ccc(-c2ccccc2)cc1NC(=O)c1ccc2c(c1)c(C1CC1)cn2CCN1CCOCC1 [N-(4-amino-[1,1′-biphenyl]-3-yl)-3-cyclopropyl-1-(2-morpholinoethyl)-1H-indole-5-carboxamide]		
			> 2000	1560	> 2000	COCCOc1cc2ncc(C(=O)Nc3cc(-c4ccccc4)ccc3N)cc2cc1C1CC1 [N-(4-amino-[1,1′-biphenyl]-3-yl)-6-cyclopropyl-7-(2-methoxyethoxy)quinoline-3-carboxamide]		
			> 2000	1220	> 2000	COCCN(C)c1cc2ncc(C(=O)Nc3cc(-c4ccccc4)ccc3N)cc2cc1C1CC1 [N-(4-amino-[1,1′-biphenyl]-3-yl)-6-cyclopropyl-7-((2-methoxyethyl)(methyl)amino)quinoline-3-carboxamide]		
				> 2000	652	Nc1ccc(-c2ccccc2)cc1NC(=O)c1cnc2c(C3CC3)c(NCc3ccccc3)ccc2c1 [N-(4-amino-[1,1′-biphenyl]-3-yl)-7-(benzylamino)-8-cyclopropylquinoline-3-carboxamide]		IC50 HDAC3 (HDAC3; Table 2): HDAC3 = No inhibition
			257	56	103	Nc1ccc(-c2ccccc2)cc1NC(=O)c1cnc2c(N3CCNCC3)c(C3CC3)ccc2c1 [N-(4-amino-[1,1′-biphenyl]-3-yl)-7-cyclopropyl-8-(piperazin-1-yl)quinoline-3-carboxamide]		
			164	15	7.8	Nc1ccc(-c2ccccc2)cc1NC(=O)c1cnc2c(C3CC3)c(N3CCNCC3)ccc2c1 [N-(4-amino-[1,1′-biphenyl]-3-yl)-8-cyclopropyl-7-(piperazin-1-yl)quinoline-3-carboxamide]		
			> 2000	799	295	Nc1ccc(-c2ccccc2)cc1NC(=O)c1cnc2c(C3CC3)c(N3CCOCC3)ccc2c1 [N-(4-amino-[1,1′-biphenyl]-3-yl)-8-cyclopropyl-7-morpholinoquinoline-3-carboxamide]		
